Source: PubChem BioAssay AID248 (DTP/NCI, 2004)
“And” between values parts separate entries of the source, which are not always exact repeats. Equal values may be shown once. Inconclusive results and toxic doses are left out.

Test system: L1210 leukemia ip in BDF1 mice, survival T/C
Experiment: NCI In Vivo Anticancer Drug Screen. Data for tumor model L1210 Leukemia (intraperitoneal) in B6D2F1 (BDF1) mice
Conditions: endpoint: mean survival time, higher = longer survival
How it was run: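 Tumor cells were implanted, animals were treated, and survival was followed. The result divides the treated measurement by the vehicle-control measurement.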

[1] = dose: 100.0 mg/kg/injection, schedule: Q01DX001 (ip), vehicle: saline with Tween-80
[2] = dose: 100.0 mg/kg/injection, schedule: Q01DX009 (ip), vehicle: saline with Tween-80
[3] = dose: 100.0 mg/kg/injection, schedule: Q04DX002 (ip), vehicle: saline with Tween-80
[4] = dose: 100.0 mg/kg/injection, schedule: Q04DX003 (ip), vehicle: saline with Tween-80
[5] = dose: 200.0 mg/kg/injection, schedule: Q01DX009 (ip), vehicle: saline with Tween-80
[6] = dose: 200.0 mg/kg/injection, schedule: Q04DX002 (ip), vehicle: saline with Tween-80
[7] = dose: 200.0 mg/kg/injection, schedule: Q04DX003 (ip), vehicle: saline with Tween-80
[8] = dose: 400.0 mg/kg/injection, schedule: Q01DX001 (ip), vehicle: saline with Tween-80
[9] = dose: 400.0 mg/kg/injection, schedule: Q01DX009 (ip), vehicle: saline with Tween-80
[10] = dose: 400.0 mg/kg/injection, schedule: Q04DX002 (ip), vehicle: saline with Tween-80
[11] = dose: 400.0 mg/kg/injection, schedule: Q04DX003 (ip), vehicle: saline with Tween-80
[12] = dose: 100.0 mg/kg/injection, schedule: Q04DX002 (ip), vehicle: gum acacia
[13] = dose: 200.0 mg/kg/injection, schedule: Q04DX002 (ip), vehicle: gum acacia
[14] = dose: 25.0 mg/kg/injection, schedule: Q01DX001 (ip), vehicle: saline
[15] = dose: 50.0 mg/kg/injection, schedule: Q01DX001 (ip), vehicle: saline
[16] = dose: 100.0 mg/kg/injection, schedule: Q01DX001 (ip), vehicle: saline
[17] = dose: 200.0 mg/kg/injection, schedule: Q01DX009 (ip), vehicle: Klucel (hydroxypropylcellulose) (HPC)
[18] = dose: 100.0 mg/kg/injection, schedule: Q04DX003 (ip), vehicle: saline
[19] = dose: 200.0 mg/kg/injection, schedule: Q04DX003 (ip), vehicle: saline
[20] = dose: 400.0 mg/kg/injection, schedule: Q04DX003 (ip), vehicle: saline
[21] = dose: 200.0 mg/kg/injection, schedule: Q01DX001 (ip), vehicle: saline
[22] = dose: 400.0 mg/kg/injection, schedule: Q01DX001 (ip), vehicle: saline
[23] = dose: 100.0 mg/kg/injection, schedule: Q01DX009 (ip), vehicle: saline
[24] = dose: 200.0 mg/kg/injection, schedule: Q01DX009 (ip), vehicle: saline

In the case of `COc1cc([N+](=O)[O-])ccc1NC(=O)N(C)Cc1ccccc1`, the T/C (dose: 50.0 mg/kg/injection, schedule: Q01DX001 (ip), vehicle: saline with Tween-80) is reported as 95 % of control, the T/C [1] is reported as 93 % of control and the T/C [2] is reported as 96 % of control. The T/C [3] was 92 % of control and 93 % of control, the T/C [4] was 116 % of control and the T/C [5] was 98 % of control. The T/C [6] was 94 % of control and 102 % of control, the T/C [7] was 98 % of control and the T/C [8] was 87 % of control and 88 % of control. For the same molecule, the T/C [9] was 94 % of control, the T/C [10] was 93 % of control and 101 % of control and the T/C [11] was 101 % of control.
`Cc1cc(=S)cc(C)o1` was tested, and the T/C [12] was 93 % of control and the T/C [13] was 109 % of control.
In the case of `Cc1cc(N(CCCOS(C)(=O)=O)CCCOS(C)(=O)=O)ccc1C=Nc1cccc(Br)c1`, the T/C [2] is reported as 96 % of control, the T/C [5] is reported as 94 % of control and the T/C [9] is reported as 91 % of control.
In the case of `CCCCCCCCCCNC(=O)C[n+]1cccc(C(=O)NC)c1`, the T/C (dose: 12.5 mg/kg/injection, schedule: Q04DX003 (ip), vehicle: saline) is reported as 95 % of control and the T/C (dose: 25.0 mg/kg/injection, schedule: Q04DX003 (ip), vehicle: saline) is reported as 89 % of control.
With `CCN(CC)CCC(O)c1ccc2c(c1)[nH]c1ccccc12` (configuration not stated) the T/C (dose: 75.0 mg/kg/injection, schedule: Q01DX001 (ip), vehicle: carboxymethylcellulose (CMC)) was 97 % of control and the T/C (dose: 150.0 mg/kg/injection, schedule: Q01DX001 (ip), vehicle: carboxymethylcellulose (CMC)) was 103 % of control.
With `CC(C)c1ccc(/C=C/C(=O)c2ccc([N+](=O)[O-])cc2)cc1` the T/C [12] was 98 % of control, the T/C [13] was 92 % of control and the T/C (dose: 400.0 mg/kg/injection, schedule: Q04DX002 (ip), vehicle: gum acacia) was 95 % of control.
`CN(C)C1CCc2c(ccc3ccccc23)C1=O` (configuration not stated) was tested, and the T/C [14] was 99 % of control, the T/C [15] was 99 % of control and the T/C [16] was 100 % of control.
In the case of `CO[C@@H]1CCCCCC[C@H]1[Hg][Cl]`, the T/C (dose: 2.0 mg/kg/injection, schedule: Q01DX015 (ip), vehicle: carboxymethylcellulose (CMC)) is reported as 104 % of control, the T/C (dose: 4.0 mg/kg/injection, schedule: Q01DX015 (ip), vehicle: carboxymethylcellulose (CMC)) is reported as 95 % of control and the T/C (dose: 5.0 mg/kg/injection, schedule: Q01DX001 (ip), vehicle: carboxymethylcellulose (CMC)) is reported as 108 % of control. The T/C (dose: 8.0 mg/kg/injection, schedule: Q01DX015 (ip), vehicle: carboxymethylcellulose (CMC)) was 101 % of control, the T/C (dose: 10.0 mg/kg/injection, schedule: Q01DX001 (ip), vehicle: carboxymethylcellulose (CMC)) was 112 % of control and the T/C (dose: 16.0 mg/kg/injection, schedule: Q01DX015 (ip), vehicle: carboxymethylcellulose (CMC)) was 93 % of control. The T/C (dose: 20.0 mg/kg/injection, schedule: Q01DX001 (ip), vehicle: carboxymethylcellulose (CMC)) was 114 % of control and the T/C (dose: 40.0 mg/kg/injection, schedule: Q01DX001 (ip), vehicle: carboxymethylcellulose (CMC)) was 108 % of control.
In the case of `c1ccc(-c2c3ccccc3c(-c3ccccc3)c3c2ccc2ccccc23)cc1`, the T/C (dose: 50.0 mg/kg/injection, schedule: Q01DX009 (ip), vehicle: Klucel (hydroxypropylcellulose) (HPC)) is reported as 91 % of control and the T/C [17] is reported as 91 % of control.
In the case of `CCOC(=O)C(C=Nc1ccc(S(N)(=O)=O)cc1)C(=O)OCC`, the T/C [4] is reported as 105 % of control, the T/C [7] is reported as 92 % of control and the T/C [11] is reported as 92 % of control.
In the case of `c1cc(N2CCOCC2)cc(NC2CCCCC2)n1`, the T/C (dose: 5.0 mg/kg/injection, schedule: Q01DX001 (ip), vehicle: saline) is reported as 95 % of control, the T/C (dose: 10.0 mg/kg/injection, schedule: Q01DX001 (ip), vehicle: saline) is reported as 104 % of control and the T/C (dose: 20.0 mg/kg/injection, schedule: Q01DX001 (ip), vehicle: saline) is reported as 97 % of control. For the same molecule, the T/C (dose: 40.0 mg/kg/injection, schedule: Q01DX001 (ip), vehicle: saline) was 103 % of control and the T/C (dose: 80.0 mg/kg/injection, schedule: Q01DX001 (ip), vehicle: saline) was 98 % of control.
In the case of `S=c1[nH]ccs1`, the T/C [14] is reported as 100 % of control, the T/C [15] is reported as 98 % of control and the T/C [16] is reported as 98 % of control and 99 % of control.
With `CC(CO)CCCC(C)C1CCC2C3CC=C4CC(O)CCC4(C)C3CCC12C` (configuration not stated) the T/C [1] was 94 % of control, the T/C (dose: 200.0 mg/kg/injection, schedule: Q01DX001 (ip), vehicle: saline with Tween-80) was 90 % of control and the T/C [8] was 100 % of control.
For `c1ccc(NP2(Nc3ccccc3)=NP(Nc3ccccc3)(Nc3ccccc3)=NP(Nc3ccccc3)(Nc3ccccc3)=N2)cc1`, the T/C (dose: 75.0 mg/kg/injection, schedule: Q01DX001 (ip), vehicle: saline) was 96 % of control, the T/C (dose: 100.0 mg/kg/injection, schedule: Q04DX003 (ip), vehicle: Klucel (hydroxypropylcellulose) (HPC)) was 99 % of control and the T/C (dose: 150.0 mg/kg/injection, schedule: Q01DX001 (ip), vehicle: saline) was 101 % of control. For the same molecule, the T/C (dose: 200.0 mg/kg/injection, schedule: Q04DX003 (ip), vehicle: Klucel (hydroxypropylcellulose) (HPC)) was 89 % of control and the T/C (dose: 300.0 mg/kg/injection, schedule: Q01DX001 (ip), vehicle: saline) was 91 % of control.
With `O=c1oc2ccccc2c(O)c1Oc1ccccc1` the T/C [18] was 98 % of control, the T/C [19] was 91 % of control and the T/C [20] was 87 % of control.
`[Cl][Hg][c]1cccs1` was tested, and the T/C (dose: 12.5 mg/kg/injection, schedule: Q01DX009 (ip), vehicle: Klucel (hydroxypropylcellulose) (HPC)) was 95 % of control and the T/C (dose: 25.0 mg/kg/injection, schedule: Q01DX009 (ip), vehicle: Klucel (hydroxypropylcellulose) (HPC)) was 93 % of control.
For `O=C(Nc1ccccc1)OC1C=CC2CCC1C2` (configuration not stated), the T/C [16] was 90 % of control, the T/C [21] was 87 % of control and the T/C [22] was 87 % of control.
With `CCOC(=O)c1c[nH]n2c(=S)ncnc12` the T/C [2] was 96 % of control, the T/C [4] was 98 % of control and the T/C [5] was 97 % of control. The T/C [7] was 104 % of control and the T/C [11] was 102 % of control.
With `Cc1ccc(N2CSC(=S)N(c3ccc(C)cc3)C2)cc1` the T/C (dose: 100.0 mg/kg/injection, schedule: Q01DX009 (ip), vehicle: Klucel (hydroxypropylcellulose) (HPC)) was 101 % of control, the T/C [18] was 94 % of control and the T/C [17] was 96 % of control. For the same molecule, the T/C [19] was 89 % of control, the T/C (dose: 400.0 mg/kg/injection, schedule: Q01DX009 (ip), vehicle: Klucel (hydroxypropylcellulose) (HPC)) was 95 % of control and the T/C [20] was 88 % of control.
For `C/C=C\C(=O)O`, the T/C [23] was 101 % of control and the T/C [24] was 96 % of control.
`O=c1[nH]nc(/C=C/c2ccccc2)o1` was tested, and the T/C (dose: 50.0 mg/kg/injection, schedule: Q04DX003 (ip), vehicle: saline) was 103 % of control, the T/C [18] was 95 % of control and the T/C [19] was 97 % of control.
For `CC(=O)Nc1nc(Cl)c2ncn(C3OC(COC(=O)c4ccccc4)CC3OC(=O)c3ccccc3)c2n1` (configuration not stated), the T/C [15] was 93 % of control, the T/C [16] was 95 % of control and the T/C [21] was 101 % of control. For the same molecule, the T/C [22] was 93 % of control.
In the case of `N#Cc1ncc(-c2ccc(Cl)cc2)nc1Cl`, the T/C [23] is reported as 105 % of control, the T/C [18] is reported as 91 % of control and the T/C [24] is reported as 113 % of control. The T/C [19] was 93 % of control and the T/C [20] was 95 % of control.
With `O=[N+]([O-])c1ccc(-c2nnc(-c3ccccc3O)o2)cc1` the T/C (dose: 50.0 mg/kg/injection, schedule: Q04DX002 (ip), vehicle: saline with Tween-80) was 92 % of control, the T/C [3] was 89 % of control and the T/C [6] was 89 % of control. The T/C [10] was 89 % of control.
For `O=COC1CC2CC1c1ccccc12` (configuration not stated), the T/C [15] was 105 % of control, the T/C [16] was 105 % of control and the T/C [21] was 105 % of control. The T/C [22] was 105 % of control.
With `CCC1(O)CC2CN(CCc3c([nH]c4ccccc34)C(C(=O)OC)(c3cc4c(cc3OC)N(C)C3C(O)(C(=O)NCCSSCCNC(=O)C5(O)C(O)C6(CC)C=CCN7CCC8(c9cc(C%10(C(=O)OC)CC%11CN(CCc%12c%10[nH]c%10ccccc%12%10)CC(O)(CC)C%11)c(OC)cc9N(C)C58)C76)C(O)C5(CC)C=CCN6CCC43C65)C2)C1` (configuration not stated) the T/C (dose: 1800.0 micrograms/kg/injection, schedule: Q04DX003 (ip), vehicle: saline) was 154 % of control and the T/C (dose: 3000.0 micrograms/kg/injection, schedule: Q04DX003 (ip), vehicle: saline) was 119 % of control.
`CCOP(=O)(Cc1ccccc1)OCC` was tested, and the T/C [18] was 110 % of control, the T/C [19] was 103 % of control and the T/C [20] was 98 % of control.
